Results reported in US12459951B2, “Compounds that interact with RAS superfamily proteins for treatment of cancers, inflammatory diseases, rasopathies, and fibrotic disease” (SHY Therapeutics, LLC, priority 2022, dated 2025).

Key:
[1] = target: T1, Rac-1 (Homo sapiens, UniProt P63000); experiment: Ras GTP Binding Domain Inhibition Assay (Ras Superfamily Assay); conditions: read-out: Rac-1: % inh.
T1 construct: made in house
In short: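 Ni-plate capture of His-tagged protein (10-30 μg/mL, o/n 4° C); cpd 20 μM or dilution series, 1% DMSO, 3 h RT ± Sos 556-1049 last h; 100 nM Cy-labelled GTP 45 min RT; 3× wash; fluorescence read.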

[2] = tested on: Akt phosphorylation; experiment: Akt Phosphorylation Assay (western blot), Panc-1; format: cell-based, human; conditions: at 10 μM, * = activation
In short: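 Panc-1 (KRas G12D) cells were treated with compound at 10 μM final (0.3% DMSO) for 6 h at 37 °C, or with serial dilutions for IC50. Cells were either serum-starved overnight in 0.5% FBS and then stimulated with 1.5 ng/ml EGF for 15 min, or kept in 10% FBS without stimulation. Akt Ser473 phosphorylation in lysates was read by western blot.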

[3] = tested on: TNF-alpha; experiment: TNF-alpha Quantification Assay (ELISA), LPS-stimulated RAW 264.7; format: cell-based; set-up: inhibition: dose or concentration left out as unconfirmed; conditions: Mus musculus, RAW264.7, read-out: TNFα: % inh.
[4] = tested on: IL6; experiment: IL-6 Quantification Assay (ELISA), LPS-stimulated RAW 264.7; format: cell-based; set-up: inhibition: dose or concentration left out as unconfirmed; conditions: Mus musculus, RAW264.7; read-out: IL-6: % inh.

inhibition at 20 µM [1] [%]	SMILES	% inh of Akt phosphorylation in Panc-1 [2]	inhibition at 10 µM [3] [%]	inhibition [4] [%]	inhibition [3] [%]
1 to 25	COc1cccc(-c2cn3nc(-c4nccn4C)nc(N[C@@H]4CC[C@H]4OC)c3c2-c2ccccc2)c1C (racemic) [Compound 272, rac 6-(3-Methoxy-2-methylphenyl)-N-((1R,2R)-2-methoxycyclobutyl)-2-(1-methyl-1H-imidazol-2-yl)-5-phenylpyrrolo[2,1-f][1,2,4]triazin-4-amine]	D (85-100% inhibition)	75 to 100	75 to 100	
76 to 100	COc1cc(Nc2nc(-c3nccn3C)nn3cc(-c4ccn(C)n4)c(C)c23)ncc1-n1cnc(C)c1 [Compound 244, N-(4-Methoxy-5-(4-methyl-1H-imidazol-1-yl)pyridin-2-yl)-5-methyl-2-(1-methyl-1H-imidazol-2-yl)-6-(1-methyl-1H-pyrazol-3-yl)pyrrolo[2,1-f][1,2,4]triazin-4-amine]	D* (85-100% activation)	0	0	
50 to 75	Cc1c(-c2ccn(C)n2)cn2nc(-c3nccn3C)nc(Nc3cc(-n4ccnc4)ccn3)c12 [Compound 245, N-(4-(1H-imidazol-1-yl)pyridin-2-yl)-5-methyl-2-(1-methyl-1H-imidazol-2-yl)-6-(1-methyl-1H-pyrazol-3-yl)pyrrolo[2,1-f][1,2,4]triazin-4-amine]	D* (85-100% activation)	0	25 to 49	
76 to 100	Cc1c(-c2ccn(C)n2)cn2nc(-c3nccn3C)nc(Nc3cc(-n4ccnc4C)ccn3)c12 [Compound 246, 5-Methyl-N-(4-(2-methyl-1H-imidazol-1-yl)pyridin-2-yl)-2-(1-methyl-1H-imidazol-2-yl)-6-(1-methyl-1H-pyrazol-3-yl)pyrrolo[2,1-f][1,2,4]triazin-4-amine]	D* (85-100% activation)	0	25 to 49	
76 to 100	Cc1c(-c2ccn(C)n2)cn2nc(-c3nccn3C)nc(Nc3ccc(N4CCOCC4)cn3)c12 [Compound 247, 5-Methyl-2-(1-methyl-1H-imidazol-2-yl)-6-(1-methyl-1H-pyrazol-3-yl)-N-(5-morpholinopyridin-2-yl)pyrrolo[2,1-f][1,2,4]triazin-4-amine]	D* (85-100% activation)	50 to 74	75 to 100	
76 to 100	Cc1c(-c2ccn(C)n2)cn2nc(-c3nccn3C)nc(Nc3cc(-c4ccccn4)ccn3)c12 [Compound 248, N-([2,4′-Bipyridin]-2′-yl)-5-methyl-2-(1-methyl-1H-imidazol-2-yl)-6-(1-methyl-1H-pyrazol-3-yl)pyrrolo[2,1-f][1,2,4]triazin-4-amine]	D* (85-100% activation)		75 to 100	25 to 49
76 to 100	Cc1c(-c2ccn(C)n2)cn2nc(-c3nccn3C)nc(Nc3ccc(-c4ccccn4)cn3)c12 [Compound 249, N-([2,3′-Bipyridin]-6′-yl)-5-methyl-2-(1-methyl-1H-imidazol-2-yl)-6-(1-methyl-1H-pyrazol-3-yl)pyrrolo[2,1-f][1,2,4]triazin-4-amine]	D* (85-100% activation)	1 to 24	75 to 100	
76 to 100	Cc1c(-c2ccn(C)n2)cn2nc(-c3nccn3C)nc(Nc3cc(-c4cccnc4)ccn3)c12 [Compound 250, N-([3,4′-Bipyridin]-2′-yl)-5-methyl-2-(1-methyl-1H-imidazol-2-yl)-6-(1-methyl-1H-pyrazol-3-yl)pyrrolo[2,1-f][1,2,4]triazin-4-amine]	D* (85-100% activation)	50 to 74	75 to 100	
26 to 49	Cc1c(-c2ccn(C)n2)cn2nc(-c3nccn3C)nc(N3CCc4cc(C(F)(F)F)cnc43)c12 [Compound 251, 5-Methyl-2-(1-methyl-1H-imidazol-2-yl)-6-(1-methyl-1H-pyrazol-3-yl)-4-(5-(trifluoromethyl)-2,3-dihydro-1H-pyrrolo[2,3-b]pyridin-1-yl)pyrrolo[2,1-f][1,2,4]triazine]	A (1-25% inhibition)			
76 to 100	COc1cc(Nc2nc(-c3nccn3C)nn3cc(-c4ccn(C)n4)c(C)c23)n[nH]1 [Compound 252, N-(5-Methoxy-1H-pyrazol-3-yl)-5-methyl-2-(1-methyl-1H-imidazol-2-yl)-6-(1-methyl-1H-pyrazol-3-yl)pyrrolo[2,1-f][1,2,4]triazin-4-amine]	D* (85-100% activation)	0	1 to 24	
76 to 100	COc1cc(Nc2nc(-c3nccn3C)nn3cc(-c4ccn(C)n4)c(C)c23)nn1C [Compound 253, N-(5-Methoxy-1-methyl-1H-pyrazol-3-yl)-5-methyl-2-(1-methyl-1H-imidazol-2-yl)-6-(1-methyl-1H-pyrazol-3-yl)pyrrolo[2,1-f][1,2,4]triazin-4-amine]	D* (85-100% activation)	0	25 to 49	
76 to 100	Cc1c(-c2ccn(C)n2)cn2nc(-c3nccn3C)nc(Nc3cc(OC(F)F)n(C)n3)c12 [Compound 254, N-(5-(Difluoromethoxy)-1-methyl-1H-pyrazol-3-yl)-5-methyl-2-(1-methyl-1H-imidazol-2-yl)-6-(1-methyl-1H-pyrazol-3-yl)pyrrolo[2,1-f][1,2,4]triazin-4-amine]	D* (85-100% activation)	0	25 to 49	
76 to 100	Cc1cc(Nc2nc(-c3nccn3C)nn3cc(-c4ccn(C)n4)c(C)c23)n[nH]1 [Compound 255, 5-Methyl-2-(1-methyl-1H-imidazol-2-yl)-6-(1-methyl-1H-pyrazol-3-yl)-N-(5-methyl-1H-pyrazol-3-yl)pyrrolo[2,1-f][1,2,4]triazin-4-amine]	D* (85-100% activation)	1 to 24	50 to 74	
76 to 100	Cc1c(-c2ccn(C)n2)cn2nc(-c3nccn3C)nc(Nc3cc[nH]n3)c12 [Compound 256, 5-Methyl-2-(1-methyl-1H-imidazol-2-yl)-6-(1-methyl-1H-pyrazol-3-yl)-N-(1H-pyrazol-3-yl)pyrrolo[2,1-f][1,2,4]triazin-4-amine]	D* (85-100% activation)	0	50 to 74	
50 to 75	Cc1c(-c2ccn(C)n2)cn2nc(-c3nccn3C)nc(Nc3cc(C4CCC4)[nH]n3)c12 [Compound 257, N-(5-Cyclobutyl-1H-pyrazol-3-yl)-5-methyl-2-(1-methyl-1H-imidazol-2-yl)-6-(1-methyl-1H-pyrazol-3-yl)pyrrolo[2,1-f][1,2,4]triazin-4-amine]	D* (85-100% activation)	25 to 49	75 to 100	
0	Cc1c(-c2ccn(C)n2)cn2nc(-c3nccn3C)nc(Nc3cc(C(F)F)[nH]n3)c12 [Compound 258, N-(5-(Difluoromethyl)-1H-pyrazol-3-yl)-5-methyl-2-(1-methyl-1H-imidazol-2-yl)-6-(1-methyl-1H-pyrazol-3-yl)pyrrolo[2,1-f][1,2,4]triazin-4-amine]	A (1-25% inhibition)	0	0	
76 to 100	Cc1c(-c2ccn(C)n2)cn2nc(-c3nccn3C)nc(Nc3cc(C(F)(F)F)[nH]n3)c12 [Compound 259, 5-Methyl-2-(1-methyl-1H-imidazol-2-yl)-6-(1-methyl-1H-pyrazol-3-yl)-N-(5-(trifluoromethyl)-1H-pyrazol-3-yl)pyrrolo[2,1-f][1,2,4]triazin-4-amine]	D* (85-100% activation)	0	50 to 74	
50 to 75	CCOc1cc(Nc2nc(-c3nccn3C)nn3cc(-c4ccn(C)n4)c(C)c23)n[nH]1 [Compound 260, N-(5-Ethoxy-1H-pyrazol-3-yl)-5-methyl-2-(1-methyl-1H-imidazol-2-yl)-6-(1-methyl-1H-pyrazol-3-yl)pyrrolo[2,1-f][1,2,4]triazin-4-amine]	C* (46-84% activation)	25 to 49	75 to 100	
76 to 100	Cc1c(-c2ccn(C)n2)cn2nc(-c3nccn3C)nc(-n3[nH]c(N)cc3=O)c12 [Compound 261, 5-Amino-2-(5-methyl-2-(1-methyl-1H-imidazol-2-yl)-6-(1-methyl-1H-pyrazol-3-yl)pyrrolo[2,1-f][1,2,4]triazin-4-yl)-1,2-dihydro-3H-pyrazol-3-one]	B (26-49% inhibition)	1 to 24	50 to 74	
50 to 75	Cc1c(-c2ccn(C)n2)cn2nc(-c3nccn3C)nc(Oc3cc(N)[nH]n3)c12 [Compound 262, 3-((5-Methyl-2-(1-methyl-1H-imidazol-2-yl)-6-(1-methyl-1H-pyrazol-3-yl)pyrrolo[2,1-f][1,2,4]triazin-4-yl)oxy)-1H-pyrazol-5-amine]	B (26-49% inhibition)	0	1 to 24	
